Experimental data from patent US20110230430A1, “SAPONIN EXTRACT FROM SAPONARIA SPP. AND USES THEREOF” (NATIONAL RESEARCH COUNCIL OF CANADA, priority 2008, published 2011).

How the values were obtained:
Assay type in all cases: cell-based, human
[1] = system: PC-3 cells; assay: APO LOGIX Carboxyfluorescein Caspase 9 Detection Kit in PC-3 cells
Description: (§1) In a still further apoptotic assay, apoptosis can be measured by the APO LOGIX™ Carboxyfluorescein Caspase 9 Detection Kit. The APO LOGIX™ Carboxyfluorescein Caspase 9 Detection Kit uses a cell permeable carboxyfluorescein labeled caspase inhibitor, which binds covalently to active caspases 9. Caspase 9 is involved in initiating apoptosis through the mitochondrial pathway (Budihardjo I., et al. 1999). Cells that contain bound inhibitor are detected by an increase in fluorescence when samples are analyzed by flow cytometry.
PC-3 cells (ATCC #CRL-1435) were derived from a prostate adenocarcinoma (Kaighn et al., 1979). They were maintained in RPMI 1640 medium (Gibco) supplemented with 10% fetal bovine serum (Cansera), 100 U/mL penicillin, and 100 μg/mL streptomycin and 0.25 μg/mL amphotericin B. Cultures were maintained in medium at 37° C. with 5% CO2 and 100% relative humidity.
PC-3 cells were seeded in tissue culture flasks with regular growth medium and maintained under normal conditions. After cells had adhered, the tissue culture medium was replaced with medium containing PC1448 dissolved in DMSO with the final concentration of DMSO not exceeding 0.05%. For each assay, a flask of untreated cells was grown in media containing the same amount of DMSO as in the PC1448 treated samples. Following incubation under normal growth conditions for the specified time, cells were washed once with cold phosphate-buffered saline (PBS) (137 mM NaCl, 2.7 mM KCl, 4.3 mM Na2HPO4.7H2O, 1.4 mM KH2PO4) and harvested as previously described. Assays were carried out according to instructions given in kits. All Flow Cytometry was performed using a Coulter Epics XL (Beckman).

[2] = system: MDA-MB-231 cells; assay: APO LOGIX Carboxyfluorescein Caspase 9 Detection Kit in MDA-MB-231 cells
Description: as §1
The MDA-MB-231 cell line (ATCC #HTB-26) was derived from the pleural effusion of a patient with a breast adenocarcinoma (Cailleau et al., 1974). The cells were maintained in RPMI 1640 (Gibco) supplemented with 10% fetal bovine serum (Camera), 100 U/mL penicillin, 100 μg/mL streptomycin and 0.25 μg/mL amphotericin B. Cultures were maintained in medium at 37° C. with 5% CO2 and 100% relative humidity.
MDA-MB-231 cells were treated with PC1448 and assayed for apoptosis as previously described for PC-3 cells.

[3] = system: HT-29 cancer cells; assay: Dual Sensor: MitoCasp Assay in HT-29 colon cancer cells; conditions: HT-29 cells, 2.5 μM, 5.0 μM and 10 μM, 23 hours
Description: Techniques to assay enzymatic and signaling processes involved in apoptosis have been developed as standard protocols. One example of an early step in apoptosis, is the release of cytochrome C from mitochondria and the activation of caspase-3. Induction of the caspases (a series of cytosolic proteases) is one of the most consistently observed features of apoptosis. Caspases are a family of proteolytic enzymes that transmit the apoptotic signal using a proteolytic cascade. […] Caspases 3 and 7 are effector caspases, central to the caspase cascade pathways. In particular, caspase-3 plays a central role in the process. When caspases are activated, they cleave target proteins; one of the most important of these is poly-(ADP-ribose) polymerase (PARP), which is a protein located in the nucleus. Therefore, assays detecting release of cytochrome C, detecting caspase-3 activity and detecting PARP degradation are effective determinants of apoptosis. The loss of mitochondrial membrane potential is known to occur during apoptosis. […] Collapse of the mitochondrial membrane potential during apoptosis prevents the dye from accumulating in the mitochondria resulting in a decrease in fluorescent intensity that can be detected with flow cytometry. […] In this assay, caspase 3/7 activity is detected using a cell permeable carboxyfluorescein labeled caspase inhibitor, which binds covalently to active caspases 3 and 7. Cells that contain bound inhibitor are detected by an increase in fluorescence when samples are analyzed by flow cytometry.
Following PC1448 treatment, adherent and non-adherent cells were harvested and washed with cold PBS. […] Samples were analyzed by flow cytometry measuring the fluorescence emissions from 515 nm to 530 nm for caspase detection, and 574 nm to 600 nm for mitochondrial membrane potential detection. […]
HT-29 cancer cells were treated with 2.5 μM, 5.0 μM and 10 μM of PC1526 or PC1448 for 23 hours, or with 2.5 μM, 5.0 μM and 10 μM PC1422 for 24 hours and assessed using the Dual Sensor: MitoCasp™ Assay. […]

In the case of Segetoside H [PC1448], the “Caspase 9 positive cells” value ([1]; 7 μM PC1448, 20 hr) is reported as 47.7%, the “Caspase 9 positive cells” value ([1]; 10 μM PC1448, 20 hr) is reported as 73.9% and the “Caspase 9 positive cells” value ([1]; 14 μM PC1448, 10 hr) is reported as 37.3%. For the same substance, the “Caspase 9 positive cells” value ([1]; 14 μM PC1448, 15 hr) was 44.2%, the “Caspase 9 positive cells” value ([1]; 14 μM PC1448, 20 hr) was 48.0% and the “Increase in cells with caspase 9 activity vs untreated” value ([1]; 14 μM PC1448, 20 hr (concentration range)) was “six fold”. The “Caspase 9 positive cells” value ([1]; 14 μM PC1448, 20 hr (concentration series)) was 75.3%, the “Increase in cells showing caspase 9 activity vs untreated” value ([1]; 14 μM PC1448, 20 hr (time course)) was “six fold” and the “Caspase 9 positive cells” value ([1]; 14 μM PC1448, 40 hr) was 29.4%. For the same substance, the “Caspase 9 positive cells” value ([1]; 17 μM PC1448, 20 hr) was 65.6%, the “Caspase 9 positive cells” value ([2]; 14 μM PC1448, 10 hr) was 23.2% and the “Caspase 9 positive cells” value ([2]; 14 μM PC1448, 15 hr) was 29.8%. The “Caspase 9 positive cells” value ([2]; 14 μM PC1448, 20 hr) was 30.5%, the “Increase in cells with caspase 9 activity vs untreated (maximum effect)” value ([2]; 14 μM PC1448, 40 hours) was 2.5 fold and the “Caspase 9 positive cells” value ([2]; 14 μM PC1448, 40 hr) was 39.4%. For the same substance, the “Caspase 3/7 activity compared to untreated cells / induction of apoptosis (in words, FIG. 5)” value [3] was “increase in caspase 3/7 activity”.
